# Measured values published in patent EP3338775B1, “USE OF BUTYLIDENEPHTHALIDE” (Everfront Biotech Inc., priority 2015, dated 2017).
# Values joined by “and” are separate entries in the source; they are usually repeats but may differ in a detail not shown here. Identical values can stand only once.
# Experiments:
# Format in all cases: cell-based
# [1] = tested on: MMP-2; assay: Western blotting of MMP-2 protein in brain CSCs CD133+; settings: BP 0, 12.5, 25, 50, 62.5 and 75 µg/ml for 24 hours, Figure 10
# Protocol: It has been known that at the start of the invasion of cancer stem cells, the extracellular matrix (ECM) is degraded by matrix metalloproteinases (MMPs). Wherein, the expressions of gelatinases, such as gelatinase-A (i.e., MMP-2) and gelatinase-B (i.e., MMP-9), are highly related to the histopathology of tumor metastasis. Brain CSCs ^CD133+ was treated with different concentrations (0, 12.5, 25, 50, 62.5 and 75 µg/ml) of BP for 24 hours, and then, proteins were extracted from the cells to conduct Western blotting to determine the expression of MMP-2 protein in the BP-treated brain CSCs ^CD133+.
# [2] = tested on: Sox-2 and Oct4 proteins; assay: Western blotting of stemness-maintenance markers in HNC-TIC-like oral stem cells; settings: BP 0, 12.5, 25 and 50 µg/ml for 24 hours; both cell lines; Figure 7
# [3] = tested on: HNC-TIC-like oral stem cells (ALDH1^+CD44^+-1 cell line or ALDH1^+CD44^+-2 cell line); assay: Soft agar colony formation assay with HNC-TIC-like oral stem cells; settings: BP 0, 25 and 50 µg/ml for 24 hours
# Protocol: In this research, a soft agar colony formation assay was used to investigate the effect of BP on inhibiting the tumor initiating activity of cancer stem cells. First, HNC-TIC-like oral stem cells (i.e., ALDH1^+CD44^+-1 cell line or ALDH1^+CD44^+-2 cell line) were treated with different concentrations (0, 25 and 50 µg/ml) of BP for 24 hours, and then, the treated cells of each group was separately seeded in the top agar [containing DMEM (Dulbecco's Modified Eagle's Medium medium), 10 % (v/v) Fetal Calf Serum (FCS) and 0.3 % (w/v) agar] (purchased from Sigma-Aldrich) at an initial cell number of 2×10^4. On the other hand, a six-well culture dish was coated with the bottom agar [containing DMEM, 10 % (v/v) FCS and 0.6 % (w/v) agar] (purchased from Sigma-Aldrich), 2 ml for each well. After the bottom agar was solidified, each group of the top agar (containing oral cancer stem cells) was respectively added onto the bottom agar in different wells of the dish, 2 ml for each well. […] Lastly, the bottom agar was stained with 0.005 % crystal violet, the number of colonies (with a diameter ≥100 µm) was counted over five fields per well with the use of a microscope, and those fields were photographed. The relative colony-forming ability of cells of each experimental group was calculated based on the result of the group treated with 0 µg/ml of BP.
# [4] = tested on: malignant glioma DBTRG cells; assay: MTT cell viability assay on malignant glioma DBTRG cells; settings: 24-hour group
# Protocol: Thereafter, a cell viability assay, MTT assay, was utilized to analyze the viabilities of brain CSCs ^CD133+ and malignant glioma DBTRG cells. […] The results are shown in Figure 1A and Figure 1B for 24-hour group and 48-hour group (i.e., the treatment for 24 hours and 48 hours) and in Table 1 for 24-hour group.
# [5] = tested on: CD133, Sox-2 and Oct4 proteins; assay: Western blotting of stemness-maintenance markers in brain CSCs CD133+; settings: BP 0, 12.5, 25, 50, 62.5 and 75 µg/ml for 24 hours; Figures 4 and 5
# Protocol: (§1) It has been known that CD44, CD133, Sox-2 (sex-determining region Y protein (SRY)-related high-mobility group box 2) and Oct4 (octamerbinding transcription factor 4) proteins all are stemness-maintenance markers of cancer stem cells and participate in the regulation of the self-renewal and differentiation of cancer stem cells. Brain CSCs ^CD133+ was treated with different concentrations (0, 12.5, 25, 50, 62.5 and 75 µg/ml) of BP for 24 hours, and then, proteins were extracted from the cells to conduct Western blotting to determine the expressions of CD133, Sox-2 and Oct4 proteins in the BP-treated brain CSCs ^CD133+. In addition, MiaPaCa-2 cell line (i.e., a cell line of pancreatic cancer cells) was treated with different concentrations (0, 12.5, 25, and 50 µg/ml) of BP for 24 hours, and then, proteins were extracted from the cells to conduct Western blotting to determine the expressions of Sox-2, CD133 and CD44 proteins in the BP-treated MiaPaCa-2 cells. […]
# [6] = tested on: pcDNA3.0-neo brain CSCs ^CD133+; assay: Wound healing assay with pcDNA3.0-neo brain CSCs CD133+; settings: without Axl overexpression; BP 0, 25, 50, 62.5, 75 and 100 µg/ml for 24 hours; Figure 14C
# Protocol: In this research, to further investigate whether the capability of BP in inhibiting the metastasis of cancer stem cells is related to Axl, brain CSCs ^CD133+ was transfected with pcDNA3.0-Axl plasmid and pcDNA3.0-neo plasmid respectively by using Lipofectmine 2000 transfection reagent. Then, the transfected brain CSCs ^CD133+ and un-transfected brain CSCs ^CD133+ were selected by 200 to 600 µg/ml G418 at the same time to obtain brain CSCs ^CD133+ having pcDNA3.0-Axl plasmid (hereinafter referred to as "pcDNA 3.0-Axl brain CSCs ^CD133+") or brain CSCs ^CD133+ having pcDNA3.0-neo plasmid (hereinafter referred to as "pcDNA3.0-neo brain CSCs ^CD133+"). Both pcDNA 3.0-Axl brain CSCs ^CD133+ and pcDNA3.0-neo brain CSCs ^CD133+ were observed and photographed with the use of a microscope. Then, proteins were extracted from both cells to conduct Western blotting to determine the expressions of Axl protein and β-actin in the BP-treated brain CSCs ^CD133+. Yet another, pcDNA 3.0-Axl brain CSCs ^CD133+ and pcDNA3.0-neo brain CSCs ^CD133+ were treated with different concentrations (0, 25, 50, 62.5, 75 and 100 µg/ml) of BP for 24 hours. At the same time, the phenomenon of pcDNA 3.0-Axl brain CSCs ^CD133+ and pcDNA3.0-neo brain CSCs ^CD133+ migrate to the wound was observed and photographed at 0 and 24 hours during the BP treatment.
# [7] = tested on: Sox-2, CD133 and CD44 proteins; assay: Western blotting of stemness-maintenance markers in MiaPaCa-2 cells; settings: BP 0, 12.5, 25 and 50 µg/ml for 24 hours; Figure 6
# Protocol: as §1
smiles,measurement,setting,value
"CCCC=C1OC(=O)c2ccccc21 [BP, butylidenephthalide]",expression of MMP-2 protein,[1],significantly decreased
same,expressions of Sox-2 and Oct4 proteins in the HNC-TIC-like oral stem cells,[2],significantly decreased
same,number of colonies in the bottom agar,"[3]; 4 weeks culture, Figure 15A",significantly decreased
same,relative colony-forming ability of cancer stem cells,"[3]; relative to 0 µg/ml group, Figure 15B",decreased along with the increment in the concentration of BP
same,IC50,[4],400 µM and 75.3 µg/mL
same,"expressions of CD133, Sox-2 and Oct4 proteins in brain CSCs ^CD133+",[5],significantly decreased
same,number of pcDNA3.0-neo brain CSCs ^CD133+ migrated to the wound,[6],significantly decreased
same,"expressions of Sox-2, CD133 and CD44 proteins in MiaPaCa-2 cells",[7],significantly decreased
